From the NIST ThermoML archive (doi:10.1021/je025657+)
Values joined by “and” are separate entries in the source; they are usually repeats but may differ in a detail not shown here. Equal values may be shown once. Numbers after ± are expanded uncertainties.

COC(F)(F)C(F)(F)F [methyl pentafluoroethyl ether]
Conditions	mass density [kg/m3]
330 K, 2009.1 kPa, Liquid	1174.81 ± 0.9
330 K, 2033.5 kPa, Liquid	1173.24 ± 0.9
330 K, 2499.3 kPa, Liquid	1178.46 ± 0.94
330 K, 3014.1 kPa, Liquid	1182.15 ± 0.98
330 K, 3040.4 kPa, Liquid	1180.5 ± 0.98
330 K, 3527.6 kPa, Liquid	1185.73 ± 1
330 K, 4007.5 kPa, Liquid	1188.95 ± 1.1
330 K, 4054 kPa, Liquid	1187.37 ± 1.1
330 K, 4522.8 kPa, Liquid	1192.32 ± 1.1
330 K, 5044.3 kPa, Liquid	1195.65 ± 1.2
330 K, 5095.2 kPa, Liquid	1194.02 ± 1.2
330 K, 5526.8 kPa, Liquid	1198.64 ± 1.2
330 K, 6004.2 kPa, Liquid	1201.54 ± 1.2
330 K, 6121.5 kPa, Liquid	1200.18 ± 1.2
330 K, 6544.9 kPa, Liquid	1204.73 ± 1.3
330 K, 7006.4 kPa, Liquid	1207.37 ± 1.3
330 K, 7184 kPa, Liquid	1206.23 ± 1.4
340 K, 72.2 kPa, Gas	3.93 ± 0.28
340 K, 97.1 kPa, Gas	5.22 ± 0.29
340 K, 106 kPa, Gas	5.76 ± 0.29
340 K, 154.8 kPa, Gas	8.59 ± 0.3
340 K, 198.1 kPa, Gas	11.09 ± 0.3
340 K, 224.8 kPa, Gas	12.57 ± 0.31
340 K, 295.9 kPa, Gas	17.05 ± 0.32
340 K, 323.2 kPa, Gas	18.7 ± 0.32
340 K, 396.6 kPa, Gas	23.61 ± 0.34
340 K, 495.8 kPa, Gas	30.46 ± 0.36
340 K, 596 kPa, Gas	38.08 ± 0.38
340 K, 597.2 kPa, Gas	38.04 ± 0.38
340 K, 707 kPa, Liquid	1124.67 ± 0.66
340 K, 722.8 kPa, Liquid	1124.82 ± 0.66
340 K, 1026.7 kPa, Liquid	1129.54 ± 0.69
340 K, 1053.7 kPa, Liquid	1128.14 ± 0.69
340 K, 1524.7 kPa, Liquid	1134.41 ± 0.73
340 K, 1999.2 kPa, Liquid	1137.11 ± 0.76
340 K, 2020.3 kPa, Liquid	1139.04 ± 0.77
340 K, 2516 kPa, Liquid	1143.49 ± 0.81
340 K, 3002.4 kPa, Liquid	1147.7 ± 0.85
340 K, 3017 kPa, Liquid	1145.96 ± 0.84
340 K, 3529.7 kPa, Liquid	1152.07 ± 0.89
340 K, 3993.9 kPa, Liquid	1155.78 ± 0.92
340 K, 4072.4 kPa, Liquid	1154.47 ± 0.92
340 K, 4525.8 kPa, Liquid	1159.9 ± 0.97
340 K, 5046.6 kPa, Liquid	1163.8 ± 1
340 K, 5093 kPa, Liquid	1162.13 ± 1
340 K, 5487.3 kPa, Liquid	1166.99 ± 1.1
340 K, 6030.7 kPa, Liquid	1170.83 ± 1.1
340 K, 6115.2 kPa, Liquid	1169.4 ± 1.1
340 K, 6527.2 kPa, Liquid	1174.25 ± 1.1
340 K, 7001.9 kPa, Liquid	1177.33 ± 1.2
340 K, 7160.8 kPa, Liquid	1176.36 ± 1.2
350 K, 71.4 kPa, Gas	3.8 ± 0.28
350 K, 104.7 kPa, Gas	5.6 ± 0.29
350 K, 129.8 kPa, Gas	6.86 ± 0.29
350 K, 152.8 kPa, Gas	8.19 ± 0.3
350 K, 222 kPa, Gas	12.14 ± 0.31
350 K, 275 kPa, Gas	15.14 ± 0.31
350 K, 319.9 kPa, Gas	17.93 ± 0.32
350 K, 395 kPa, Gas	22.4 ± 0.33
350 K, 455.2 kPa, Gas	26.4 ± 0.34
350 K, 560.7 kPa, Gas	33.51 ± 0.36
350 K, 777.4 kPa, Gas	50.08 ± 0.42
350 K, 799.2 kPa, Gas	52.12 ± 0.43
350 K, 902.4 kPa, Liquid	1084.92 ± 0.55
350 K, 933 kPa, Liquid	1085.29 ± 0.56
350 K, 1008.2 kPa, Liquid	1087.64 ± 0.56
350 K, 1049.9 kPa, Liquid	1086.78 ± 0.56
350 K, 1470.3 kPa, Liquid	1093.45 ± 0.59
350 K, 2013.5 kPa, Liquid	1099.88 ± 0.63
350 K, 2056.5 kPa, Liquid	1098.92 ± 0.62
350 K, 2517.3 kPa, Liquid	1105.5 ± 0.66
350 K, 3024.3 kPa, Liquid	1110.87 ± 0.7
350 K, 3061.7 kPa, Liquid	1109.59 ± 0.69
350 K, 3474.5 kPa, Liquid	1115.43 ± 0.73
350 K, 4005.1 kPa, Liquid	1120.6 ± 0.77
350 K, 4100.2 kPa, Liquid	1119.85 ± 0.77
350 K, 4481.5 kPa, Liquid	1124.97 ± 0.81
350 K, 4979.5 kPa, Liquid	1129.41 ± 0.85
350 K, 5116.8 kPa, Liquid	1128.93 ± 0.85
350 K, 5469.1 kPa, Liquid	1133.62 ± 0.89
350 K, 5973.9 kPa, Liquid	1137.8 ± 0.93
350 K, 6125.5 kPa, Liquid	1137.3 ± 0.94
350 K, 6531.4 kPa, Liquid	1142.27 ± 0.98
350 K, 6996.6 kPa, Liquid	1145.86 ± 1
350 K, 7196.9 kPa, Liquid	1145.6 ± 1
360 K, 45.3 kPa, Gas	2.31 ± 0.28
360 K, 98.2 kPa, Gas	5.11 ± 0.29
360 K, 137.2 kPa, Gas	7.1 ± 0.29
360 K, 200.1 kPa, Gas	10.49 ± 0.3
360 K, 231.4 kPa, Gas	12.2 ± 0.31
360 K, 289.8 kPa, Gas	15.49 ± 0.32
360 K, 334.5 kPa, Gas	18.07 ± 0.32
360 K, 415.3 kPa, Gas	22.84 ± 0.34
360 K, 477.9 kPa, Gas	26.77 ± 0.35
360 K, 586.1 kPa, Gas	33.71 ± 0.37
360 K, 670.7 kPa, Gas	39.54 ± 0.39
360 K, 807.9 kPa, Gas	49.64 ± 0.42
360 K, 915.4 kPa, Gas	58.53 ± 0.45
360 K, 990.4 kPa, Gas	65.14 ± 0.48
360 K, 1139.7 kPa, Liquid	1041.29 ± 0.44
360 K, 1228 kPa, Liquid	1042.77 ± 0.44
360 K, 1529.8 kPa, Liquid	1049.05 ± 0.46

mass density
Conditions	330 K	340 K	350 K
Gas	–	47.9 ± 0.21 kg/m3	61.38 ± 0.23 kg/m3
Liquid	1161.46 ± 0.77 kg/m3 and 1163.08 ± 0.77 kg/m3	1124.55 ± 0.65 kg/m3 and 1126.1 ± 0.65 kg/m3 and 1126.12 ± 0.65 kg/m3	1084.74 ± 0.54 kg/m3 and 1086.06 ± 0.55 kg/m3
